Experimental findings from patent US12680078B2, “Differentiation of pluripotent stem cells and cardiac progenitor cells into striated cardiomyocyte fibers using laminins LN-511, LN-521 and LN-221” (National University of Singapore, priority 2013, dated 2026) are described below.

In experiment [1] the test system is cardiomyocytes. Description: Cell viability assay (ATP content) on hESC-derived cardiomyocytes. In kind it is cell-based. Particulars: Homo sapiens, Cardiomyocyte, read-out: EC50 (cell viability, ATP content). The procedure:
FIG. 12G is a graph showing ATP content (relative light units×1000) versus log concentration of valinomycin. The y-axis runs from 0 to 5 in increments of 1. The x-axis runs from −7 to −3 in increments of 1.
FIG. 12H is a graph showing ATP content (relative light units×1000) versus log concentration of emetine dihydrochloride. The y-axis runs from 0 to 6 in increments of 2. The x-axis runs from −8 to −3 in increments of 1.
(§1) Cellular responses to adrenergic stimulation were also tested with MEA.

The subject of experiment [2] is cardiomyocytes. Kind of experiment: Multi-electrode assay (MEA) of cellular responses to adrenergic stimulation. It counts as cell-based, human. Particulars: upon exposure. The method, then: To further characterize the functionality of the cardiomyocytes, single cell patch clamp and multi-electrode assay (MEA) were utilized to measure their action potential. 13.60% mimicked the nodal subtype, 22.20% mimicked the atrial subtype, and 64.20% mimicked the heart ventricle subtype (see FIG. 8(C)).
as §1

pEC50: −log10 of the molar value. Where a name gives a salt, the structure may show the parent alone. Read-outs that look alike come from different tables or passages of the source.

In general, pEC50 refers to the EC50 on a negative log10 scale, so that one unit is a factor of ten.

In the case of `CC(C)[C@@H]1NC(=O)[C@H](C)OC(=O)[C@@H](C(C)C)NC(=O)[C@@H](C(C)C)OC(=O)[C@H](C(C)C)NC(=O)[C@H](C)OC(=O)[C@@H](C(C)C)NC(=O)[C@@H](C(C)C)OC(=O)[C@H](C(C)C)NC(=O)[C@H](C)OC(=O)[C@@H](C(C)C)NC(=O)[C@@H](C(C)C)OC1=O` [valinomycin], in the experiment on cardiomyocytes [1], the pEC50 is 4.88.

In the case of `CC[C@H]1CN2CCc3cc(OC)c(OC)cc3[C@@H]2C[C@@H]1C[C@H]1NCCc2cc(OC)c(OC)cc21` [emetine dihydrochloride], the pEC50 in the experiment on cardiomyocytes [1] (hESC-derived cardiomyocytes, FIG. 12G/12H) is 5.22.

As to `CC(C)NCC(O)c1ccc(O)c(O)c1` (stereo not shown) [isoproterenol], in the experiment with cardiomyocytes [2], the heart rate result is given as “increased heart rate”.

Turning to `CC(C)NCC(O)c1ccc(NS(C)(=O)=O)cc1` (stereo not shown) [Sotalol], the “corrected field potential duration (cFPD)” value in the experiment on cardiomyocytes [2] was “shortened corrected field potential duration (cFPD)”.
